One experiment relates to T1, BpfAB (BpfA1B1).
T1 construct: gene bpfA1; bpfA1B1 co-expressed from pET-29a in E. coli BL21(DE3), N-terminal His6 on BpfA (MHHHHHHPLSVAE by primer), Ni-NTA; total 663 aa; BpfB mostly apo (little heme); C-terminus of BpfB VEPKP by primer; with Cytochrome c BpfB
Description: HPLC of residual substrate; Michaelis-Menten nonlinear fit. Type of experiment: biochemical, Sphingobium yanoikuyae. The note with it: apparent; optimal pH 8.0 and 55°C; 0.1 mM FAD, 0.2 mM phenazine methosulfate in standard assay; BpfB mostly apo.

The subject of a further experiment is T2, BpfC (BpfC1).
T2 construct: full length, 402 aa (1,209 bp), C-terminal His6 (pET-29a), E. coli BL21(DE3), Ni-NTA; N-terminus MSGNDR and C-terminus FAESVQ-LEHHHHHH by primers
The experiment is described as above. It counts as biochemical, Sphingobium yanoikuyae. The note with it: apparent; optimal pH 8.5 and 40°C; 0.02 mM FAD, 0.4 mM nicotinamide adenine dinucleotide phosphate in standard assay; aerobic.

As for `Oc1ccc(Cc2ccc(O)cc2)cc1` [BPF, Bisphenol F], the Michaelis constant (Km) – broadly, the concentration of substrate that gives half-maximal velocity – with BpfAB (BpfA1B1) worked out at 19.3 ± 6.66 µM.

As for `O=C(c1ccc(O)cc1)c1ccc(O)cc1` [DHBP, 4,4'-dihydroxybenzophenone], the Michaelis-Menten constant (Km) with BpfC (BpfC1) came out at 21.3 ± 2.88 µM.

For the origin of these results see PMC12724174, “Biodegradation of the endocrine-disrupting compound bisphenol F by Sphingobium yanoikuyae DN12” (Applied and Environmental Microbiology, 2025).
